Assay results taken from article PMC2248166, “Quantitative peptide binding motifs for 19 human and mouse MHC class I molecules derived using positional scanning combinatorial peptide libraries” (Immunome Research, 2008).

Key:
HLA B*5401 = HLA B*5401 (Homo sapiens, UniProt P01889, A329T/C349S/D138N/D201E/E176V/E187T/E204Q/E69G/I76V/K202T/L119W/R155S/R180L/S121T/S35A/S48A/V127L/V306I/V36M/Y140L); assay type: binding
HLA B*5101 = HLA B*5101 (Homo sapiens, UniProt P01889, A329T/A93T/A95T/C349S/D138N/D201E/D98Y/E187L/E204Q/E69T/G107R/I218V/K202T/L105A/L119W/N104I/Q94N/R106L/R155S/R180L/S101N/S121T/S35A/S48A/V306I/V36M/Y195H/Y91F); assay type: binding
HLA A*3001 = HLA A*3001 (Homo sapiens, UniProt P04439, D140H/D185E/E176W/F33S/G80R/H175R/K168Q/R138E/R41S); test: biochemical; assay type: binding
HLA B*1501 = HLA B*1501 (Homo sapiens, UniProt P01889, A329T/A93T/A95T/C349S/D201E/D98Y/E187L/E204Q/E69M/E70A/K202T/N87E/Q94N/R155S/R180W/S121R/S35A/S48A/V306I/V36M/Y140S/Y91S); test: biochemical; assay type: binding
HLA B*5801 = HLA B*5801 (Homo sapiens, UniProt P01889, A329T/C349S/D201E/D98Y/E176V/E187L/E204Q/E69T/G107R/I218V/I90N/K202T/L105A/L119I/N104I/N87E/Q89R/Q94S/R106L/R155S/R180L/R86G/S101N/S121R/S35A/S48A/T118I/V127L/V306I/V36M/Y140S/Y91M); assay type: binding
HLA A*6802 = HLA A*6802 (Homo sapiens, UniProt P04439, A269V/D140Y/D185E/E176V/E277Q/E87N/F33Y/G231S/I121R/I166T/I218V/L180W/L300P/L318F/N151K/P208A/P217A/Q86R/R138H/R169H/S129P/T345S/V36M); assay type: binding
H-2 K^k = H-2 K^k (Mus musculus, UniProt P04223); assay type: binding
HLA B*5802 = HLA B*5802 (Homo sapiens, UniProt P01889, A329T/C349S/D201E/D98Y/E176V/E187L/E204Q/E69T/G107R/I218V/I90N/K202T/L105A/N104I/N87E/Q89R/Q94S/R106L/R155S/R180L/R86G/S101N/S121W/S35A/S48A/V127L/V306I/V36M/Y140S/Y91M); assay type: binding
HLA B*2705 = HLA B*2705 (Homo sapiens, UniProt P01889, D138H/D201E/E176V/E204Q/G107R/H137Y/K202T/N104T/N87E/Q56L/Q94K/R106L/R155S/R180L/S101D/S121N/S48T/Y140D/Y33H/Y91C); assay type: binding; conditions: positional scanning combinatorial 9-mer library; normalized to 1.0 for the best residue at each position
HLA B*5301 = HLA B*5301 (Homo sapiens, UniProt P01889, A329T/A93T/A95T/C349S/D201E/D98Y/E176V/E187L/E204Q/E69T/G107R/I218V/K202T/L105A/L119I/N104I/Q94N/R106L/R155S/R180L/S101N/S121R/S35A/S48A/T118I/V127L/V306I/V36M/Y140S/Y91F); assay type: binding
HLA B*1503 = HLA B*1503 (Homo sapiens, UniProt P01889, A329T/A93T/A95T/C349S/D201E/D98Y/E187L/E204Q/K202T/N87E/Q94N/R155S/R180L/S121R/S35A/V306I/V36M/Y140S/Y91S); test: biochemical; assay type: binding
H-2 D^d = H-2 D^d (Mus musculus, UniProt P01900); assay type: binding
HLA B*0702 = HLA B*0702 (Homo sapiens, UniProt P01889); assay type: binding; conditions: positional scanning combinatorial 9-mer library; normalized to 1.0 for the best residue at each position
HLA B*0801 = HLA B*0801 (Homo sapiens, UniProt P01889, A93T/A95T/D138N/E176V/E187T/K202T/Q94N/R180D/S35A/V36M/Y33D/Y91F); test: biochemical; assay type: binding
HLA B*3501 = HLA B*3501 (Homo sapiens, UniProt P01889, A329T/A93T/A95T/C349S/D201E/D98Y/E176V/E187L/E204Q/E69T/I218V/K202T/L119I/Q94N/R155S/R180L/S121R/S35A/S48A/T118I/V127L/V306I/V36M/Y140S/Y91F); assay type: binding
HLA A*3201 = HLA A*3201 (Homo sapiens, UniProt P04439, A270S/D101S/D185E/E176V/E277Q/F133L/G103R/G107R/G231S/H175R/I121M/I218V/I322F/K168Q/L105A/L300P/L318F/M331R/P208A/P217A/Q94H/R106L/R138Q/S129P/T104I/T323A/T345S/V100E/V321M/V358M); test: biochemical; assay type: binding
H-2 D^b = H-2 D^b (Mus musculus, UniProt P01899); assay type: binding
HLA A*0201 = HLA A*0201 (Homo sapiens, UniProt P04439, D140Y/D185E/D98H/E176V/E277Q/G131W/G231S/I119V/I121R/I166T/I218V/L300P/L318F/N151K/N90K/P208A/P217A/Q86G/Q94H/R138H/R169H/T345S); conditions: positional scanning combinatorial 9-mer library; normalized to 1.0 for the best residue at each position

Sequence of H-2 D^d (P01900 whole entry, looked up): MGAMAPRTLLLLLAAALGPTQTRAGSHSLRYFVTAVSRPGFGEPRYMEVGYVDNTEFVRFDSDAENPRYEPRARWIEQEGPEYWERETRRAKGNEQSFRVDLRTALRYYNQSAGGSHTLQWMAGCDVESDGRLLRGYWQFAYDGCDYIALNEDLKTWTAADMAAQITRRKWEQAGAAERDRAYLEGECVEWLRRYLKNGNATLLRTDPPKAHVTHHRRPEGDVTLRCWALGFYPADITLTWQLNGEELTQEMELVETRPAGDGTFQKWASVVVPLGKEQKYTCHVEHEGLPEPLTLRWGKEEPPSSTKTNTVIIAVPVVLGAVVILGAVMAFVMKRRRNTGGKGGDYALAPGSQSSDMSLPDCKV
Sequence of H-2 K^k (P01887 21-119): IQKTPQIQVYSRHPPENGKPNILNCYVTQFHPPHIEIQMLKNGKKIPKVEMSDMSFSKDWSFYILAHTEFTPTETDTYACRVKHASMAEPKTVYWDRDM
Sequence of H-2 K^k (P04223 22-369): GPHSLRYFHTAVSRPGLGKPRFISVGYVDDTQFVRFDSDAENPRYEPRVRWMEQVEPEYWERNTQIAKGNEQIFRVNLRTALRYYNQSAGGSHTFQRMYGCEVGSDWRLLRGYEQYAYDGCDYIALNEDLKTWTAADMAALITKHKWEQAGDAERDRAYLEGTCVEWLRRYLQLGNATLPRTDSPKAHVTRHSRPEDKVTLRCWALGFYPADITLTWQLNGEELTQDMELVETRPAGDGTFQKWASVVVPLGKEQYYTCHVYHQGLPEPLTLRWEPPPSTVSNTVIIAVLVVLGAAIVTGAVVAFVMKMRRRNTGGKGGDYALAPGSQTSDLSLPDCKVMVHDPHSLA
Sequence of H-2 D^b (P01887 21-119): as the sequence (P01887 21-119) above
Sequence of H-2 D^b (P01899 25-362): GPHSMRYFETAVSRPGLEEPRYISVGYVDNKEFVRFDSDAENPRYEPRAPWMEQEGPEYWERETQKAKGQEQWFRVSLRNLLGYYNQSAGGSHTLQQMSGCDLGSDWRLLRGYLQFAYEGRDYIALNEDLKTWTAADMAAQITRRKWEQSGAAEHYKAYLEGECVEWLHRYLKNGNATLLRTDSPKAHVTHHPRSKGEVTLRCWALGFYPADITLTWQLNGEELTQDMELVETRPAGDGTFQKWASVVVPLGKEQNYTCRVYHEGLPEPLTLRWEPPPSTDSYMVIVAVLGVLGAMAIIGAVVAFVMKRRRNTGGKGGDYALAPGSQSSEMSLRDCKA

Sequence	Normalized average relative binding affinity (ARB), HLA B*5401 (HLA B*5401)	Normalized average relative binding affinity (ARB), HLA B*5101 (HLA B*5101)	Normalized average relative binding affinity (ARB), HLA A*3001 (HLA A*3001)	Normalized average relative binding affinity (ARB), HLA B*1501 (HLA B*1501)	Normalized average relative binding affinity (ARB), HLA B*5801 (HLA B*5801)	Normalized average relative binding affinity (ARB), HLA A*6802 (HLA A*6802)	Normalized average relative binding affinity (ARB), H-2 Kk (H-2 K^k)	Normalized average relative binding affinity (ARB), HLA B*5802 (HLA B*5802)	Normalized average relative binding affinity (ARB), HLA B*2705 (HLA B*2705)	Normalized average relative binding affinity (ARB), HLA B*5301 (HLA B*5301)	Normalized average relative binding affinity (ARB), HLA B*1503 (HLA B*1503)	Normalized average relative binding affinity (ARB), H-2 Dd (H-2 D^d)	Normalized average relative binding affinity (ARB), HLA B*0702 (HLA B*0702)	Normalized average relative binding affinity (ARB), HLA B*0801 (HLA B*0801)	Normalized average relative binding affinity (ARB), HLA B*3501 (HLA B*3501)	Normalized average relative binding affinity (ARB), HLA A*3201 (HLA A*3201)	Normalized average relative binding affinity (ARB), H-2 Db (H-2 D^b)	Normalized average relative binding affinity (ARB), HLA A*0201 (HLA A*0201)
XGXXXXXXX [3064.0026]	0.011	0.16	0.22	0.095	0.14	0.014	0.0063	0.077	0.0016	0.022	0.042	1.0	0.0028	0.17	0.063	0.025	0.42	0.0090
XXSXXXXXX [3064.0056]	0.014	0.16	0.040	0.41	0.33	0.50	0.43	0.066	0.27	0.15	0.41	0.0061	0.093	0.057	0.11	0.29	0.084	0.17
XEXXXXXXX [3064.0024]	0.0026	0.041	0.025	0.20	0.0066	0.0068	1.0	0.066	0.0016	0.021	0.11	0.014	0.0028	0.038	0.021	0.031	0.036	0.030
XMXXXXXXX [3064.0031]	0.0072	0.039	0.70	0.96	0.0033	0.055	0.012	0.17	0.010	0.040	0.57	0.018	0.0028	0.70	0.035	0.63	0.73	0.19
CXXXXXXXX [3064.0002]	0.027	0.19	0.097	0.19	0.18	0.13	0.51	0.048	0.11	0.061	0.20	0.26	0.19	0.16	0.19	0.11	0.16	0.032
HXXXXXXXX [3064.0007]	0.34	0.15	0.49	0.59	0.43	0.53	0.91	0.026	0.49	1.0	0.20	0.21	0.80	0.18	1.0	0.38	0.17	0.0048
